Data: patent publication US20250099420A1, “SMALL MOLECULE MODULATORS OF GPR139 COMPLEX” (University of Florida Research Foundation, Incorporated, priority 2022, published 2025)
Like-named read-outs stand apart in the source and are kept apart here.

Key:
parental HEK cells = assay: HEK parental Agonist Counterscreen Assay (non-transfected cells); assay type: cell-based; settings: for Averaged Max % Response (±St. Dev.): activity relative to known control
Text: The high control for the agonist counterscreen was Forskolin not acetylcholine.

GPR139 = target: T1, GPR139 (Homo sapiens, UniProt Q6DWJ6); assay: GPR139 Agonist titration / agonist counterscreen assay (calcium detection, HEK-GPR139 cells); assay type: cell-based; parameters: expressed in transfected cells; host or cells: HEK Aequorin cells, Maxcyte transient transfection; settings: GPR139 Agonist Activity; for Averaged Max % Response (±St. Dev.): activity relative to known control; for EC50: read-out: EC50
T1 sequence (Q6DWJ6 1-353): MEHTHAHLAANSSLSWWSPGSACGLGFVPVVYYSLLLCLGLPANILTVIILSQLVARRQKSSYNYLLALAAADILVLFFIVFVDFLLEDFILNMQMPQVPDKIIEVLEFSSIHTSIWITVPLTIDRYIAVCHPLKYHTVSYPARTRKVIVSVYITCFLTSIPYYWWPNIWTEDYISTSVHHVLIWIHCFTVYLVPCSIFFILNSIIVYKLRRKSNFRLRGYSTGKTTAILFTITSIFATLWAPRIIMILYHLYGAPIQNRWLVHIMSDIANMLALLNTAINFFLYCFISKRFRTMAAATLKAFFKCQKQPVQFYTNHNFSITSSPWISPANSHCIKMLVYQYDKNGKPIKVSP
Protocol: GPR activity was assessed using a calcium detection assay. […] Negative control samples were treated with DMSO. […] Intracellular calcium was measured using Calcium 5.

[1] = Homo sapiens, HEK293, HEK Agonist Activity section of Table 4 (parental HEK counterscreen)
[2] = HEK Agonist Activity, parental non-transfected HEK cells
[3] = values printed in E-notation without unit
[4] = Homo sapiens, HEK293, HEK Agonist Activity, parental non-transfected HEK cells
[5] = HEK Agonist Activity section of Table 4 (parental HEK counterscreen)

| Structure (SMILES) | Lipophilic Efficiency (logD) (parental HEK cells; HEK Agonist Activity section) | Lipophilic Efficiency (logP) (parental HEK cells; HEK Agonist Activity section) | Efficiency Ligand (GPR139) | Lipophilic Efficiency (logD) (GPR139) | Lipophilic Efficiency (logP) (GPR139) | Averaged Max % Response (±St. Dev.) (GPR139) [%] | Lipophilic Efficiency (logD) (GPR139; based on logD) | Lipophilic Efficiency (logP) (GPR139; based on logP) | Hill Slope (GPR139; fitted dose-response curve) | Efficiency Ligand (GPR139; ligand efficiency) | EC50 (GPR139; [3]) [nM] | Hill Slope (GPR139) | EC50 (GPR139; HEK-GPR139 cells) [nM] | Averaged Max % Response (±St. Dev.) (parental HEK cells; HEK Agonist Activity section) [%] | EC50 (parental HEK cells; [1]) [nM] | further results |
| --- | --- | --- | --- | --- | --- | --- | --- | --- | --- | --- | --- | --- | --- | --- | --- | --- |
| C=C(CC1C(=O)CC(c2ccccc2)(c2ccccc2)C1=O)C(C)CC1=CC=CC1 (stereo not shown) [SR-01000062305] | 1.70 | 1.70 | 0.27 | 2.66 | 2.66 | 121.63 ± 9.56 |  |  |  |  |  |  |  | −4.71 ± 5.40 | > 14800 |  |
| COc1ccc(C2(C)NC(=O)N(CC(=O)NC3CCCC3)C2=O)cc1 (stereo not shown) [SR-01000918718] |  |  |  |  |  | 106.93 ± 8.46 | 6.47 | 6.47 | 0.93 | 0.43 | 19.9 |  |  |  |  | Lipophilic Efficiency (logD) (parental HEK cells; HEK Agonist Activity): 3.62; Lipophilic Efficiency (logP) (parental HEK cells; HEK Agonist Activity): 3.62; Averaged Max % Response (±St. Dev.) (parental HEK cells; HEK Agonist Activity): 16.28 ± 3.44%; EC50 (parental HEK cells; [2]): > 14100 nM |
| COc1cc(OC)cc(-c2nnc(NC(=O)Cc3cccc4ccccc34)o2)c1 [SR-01000012205] |  |  |  |  |  | 109.87 ± 14.69 | 4.06 | 4.05 | 0.93 | 0.36 | 34.4 |  |  |  |  | Lipophilic Efficiency (logD) (parental HEK cells; HEK Agonist Activity): 1.43; Lipophilic Efficiency (logP) (parental HEK cells; HEK Agonist Activity): 1.43; Averaged Max % Response (±St. Dev.) (parental HEK cells; HEK Agonist Activity): 1.53 ± 2.99%; EC50 (parental HEK cells; [2]): > 14500 nM |
| COC(=O)c1ccc(CNC(=O)Nc2ccc(-c3cn[nH]c3)cc2)cc1.O=C(O)C(F)(F)F [SR-00000005410] | 2.07 | 2.07 | 0.31 | 2.93 | 2.93 | 99.92 ± 5.04 |  |  |  |  |  | 1.14 | 1900 | 7.35 ± 2.40 |  | EC50 (parental HEK cells; [5]): > 14100 nM |
| CC1(c2ccc3c(c2)OCO3)NC(=O)N(CC(=O)NC2CCCC2)C1=O (stereo not shown) [SR-01000065547] | 3.84 | 3.84 | 0.34 | 5.32 | 5.32 | 87.19 ± 17.95 |  |  |  |  |  | 0.59 | 465 | 2.31 ± 13.81 | > 14100 |  |
| Cc1ccc(CNC(=O)Cn2nc(-c3ccc(C)cc3)ccc2=O)cc1 [SR-01000145456] | 1.62 | 1.62 | 0.32 | 2.66 | 2.66 | 88.21 ± 16.68 |  |  |  |  |  | 1.42 | 1300 | −11.57 ± 15.53 | > 14100 |  |
| COc1cc(C(=O)NNC(=O)CSc2ccc(C)cc2)cc(OC)c1C [SR-01000070170] | 1.89 | 1.89 | 0.34 | 3.40 | 3.40 | 98.34 ± 1.36 |  |  |  |  |  | 0.96 | 462 | 6.82 ± 9.60 | > 15000 |  |
| COc1ccc(CCn2nc(-c3cccnc3)[nH]c2=O)cc1 [SR-01000335115] | 2.33 | 2.33 | 0.38 | 3.37 | 3.37 | 86.17 ± 9.84 |  |  |  |  |  | 1.29 | 1300 | 12.86 ± 9.78 | > 14100 |  |
| Cc1ccc2c(c1)-c1c(cnn1CC(=O)Nc1ncccc1C)CO2 [SR-01000106321] | 1.97 | 1.97 | 0.34 | 3.26 | 3.26 | 96.96 ± 1.13 |  |  |  |  |  | 1.43 | 732 | 6.49 ± 5.13 |  | EC50 (parental HEK cells; [5]): > 14100 nM |
| Nc1c(Cl)c(Cl)nc(C(=O)OCC(=O)NCc2ccccc2)c1Cl [SR-01000073564] | 2.07 | 2.07 |  |  |  | 129.62 ± 8.33 | 4.46 | 4.46 | 0.59 | 0.42 | 58.6 |  |  | 8.96 ± 14.03 | > 14500 |  |
| Cc1ccc2c(c1)-c1c(cnn1CC(=O)Nc1ccccn1)CO2 [SR-01000152429] | 2.49 | 2.49 |  |  |  | 109.51 ± 16.91 | 4.53 | 4.53 | 1.07 | 0.40 | 128 |  |  | −0.18 ± 21.55 |  | EC50 (parental HEK cells; [5]): > 14100 nM |
| Cc1cc(C)c(/C=C2/NC(=N)NC2=O)c(C)c1 [SR-01000218376] | 1.45 | 1.45 |  |  |  | 76.44 ± 0.80 | 3.82 | 3.82 | 0.92 | 0.59 | 60.5 |  |  | 1.93 ± 7.79 | > 14100 |  |

Further lines, with some results ahead:

| Lipophilic Efficiency (logD) (parental HEK cells; HEK Agonist Activity section) | Lipophilic Efficiency (logP) (parental HEK cells; HEK Agonist Activity section) | Efficiency Ligand (GPR139) | Lipophilic Efficiency (logD) (GPR139) | Lipophilic Efficiency (logP) (GPR139) | Averaged Max % Response (±St. Dev.) (GPR139) [%] | Lipophilic Efficiency (logD) (GPR139; based on logD) | Lipophilic Efficiency (logP) (GPR139; based on logP) | Hill Slope (GPR139; fitted dose-response curve) | Efficiency Ligand (GPR139; ligand efficiency) | EC50 (GPR139; [3]) [nM] | Hill Slope (GPR139) | EC50 (GPR139; HEK-GPR139 cells) [nM] | Structure (SMILES) | Averaged Max % Response (±St. Dev.) (parental HEK cells; HEK Agonist Activity section) [%] | EC50 (parental HEK cells; [1]) [nM] | further results |
| --- | --- | --- | --- | --- | --- | --- | --- | --- | --- | --- | --- | --- | --- | --- | --- | --- |
| 4.40 | 4.40 |  |  |  | 100.35 ± 10.43 | 6.65 | 6.65 | 0.39 | 0.37 | 79.7 |  |  | COc1ccccc1NC(=O)NNC(=O)CN1C(=O)COc2ccccc21 [SR-01000336035] | −5.99 ± 6.97 | > 14100 |  |
|  |  |  |  |  | 100.82 ± 13.50 | 4.27 | 4.27 |  | 0.34 |  |  |  | O=C(Cn1nc(Cc2ccncc2)c2ccccc2c1=O)NC(O)CCc1ccccc1 (stereo not shown) [SR-01000134029] |  |  | Lipophilic Efficiency (logD) (parental HEK cells; HEK Agonist Activity): 1.41; Lipophilic Efficiency (logP) (parental HEK cells; HEK Agonist Activity): 1.41; Averaged Max % Response (±St. Dev.) (parental HEK cells; HEK Agonist Activity): 19.31 ± 4.61%; EC50 (parental HEK cells; [4]): > 14100 nM |
|  |  |  |  |  | 122.18 ± 22.07 | 5.74 | 5.73 | 1.04 | 0.36 | 21.5 |  |  | COc1ccc(C2=NN(CC(=O)NCCCN(C)c3ccccc3)C(=O)CC2)cc1 [SR-01000145949] |  |  | Lipophilic Efficiency (logD) (parental HEK cells; HEK Agonist Activity): 2.92; Lipophilic Efficiency (logP) (parental HEK cells; HEK Agonist Activity): 2.92; Averaged Max % Response (±St. Dev.) (parental HEK cells; HEK Agonist Activity): 2.57 ± 15.21%; EC50 (parental HEK cells; [4]): > 14100 nM |
| 0.78 | 0.78 | 0.38 | 1.36 | 1.36 | 68.10 ± 8.73 |  |  |  |  |  | 0.74 | 3700 | Cc1ccc(NC(=O)NCCCc2ccccc2)cc1 [SR-01000299370] | −5.05 ± 8.64 | > 14100 |  |
| 2.37 | 2.37 |  |  |  | 113.53 ± 12.66 | 4.28 | 4.28 | 1.14 | 0.34 |  |  |  | CCCCN(C)C(=O)CCC(=O)NNC1Cc2ccccc2C2=CC(C)=CC21 (stereo not shown) [SR-01000131962] | −5.39 ± 5.10 | > 14100 |  |
| 2.18 | 2.18 | 0.34 | 3.66 | 3.66 | 97.42 ± 2.76 |  |  |  |  |  | 0.93 | 468 | O=C(Cn1ncc2c1-c1ccccc1OC2)Nc1ccc(CCO)cc1 [SR-01000098914] | 11.28 ± 8.03 | > 14100 |  |
| 2.46 | 2.46 |  |  |  | 124.32 ± 15.50 | 4.52 | 4.51 | 0.93 | 0.34 |  |  |  | CC1C(CC(=O)NCC(=O)CCC2=Cc3ccccc3C2)=Nc2ccccc21 (stereo not shown) [SR-01000068608] | 24.17 ± 25.98 | > 14300 |  |
